The assay concerns the target T1, Purified ATP13A2 (Homo sapiens, UniProt Q9NQ11).
T1 sequence (Q9NQ11 1-1175 isoform Q9NQ11-3): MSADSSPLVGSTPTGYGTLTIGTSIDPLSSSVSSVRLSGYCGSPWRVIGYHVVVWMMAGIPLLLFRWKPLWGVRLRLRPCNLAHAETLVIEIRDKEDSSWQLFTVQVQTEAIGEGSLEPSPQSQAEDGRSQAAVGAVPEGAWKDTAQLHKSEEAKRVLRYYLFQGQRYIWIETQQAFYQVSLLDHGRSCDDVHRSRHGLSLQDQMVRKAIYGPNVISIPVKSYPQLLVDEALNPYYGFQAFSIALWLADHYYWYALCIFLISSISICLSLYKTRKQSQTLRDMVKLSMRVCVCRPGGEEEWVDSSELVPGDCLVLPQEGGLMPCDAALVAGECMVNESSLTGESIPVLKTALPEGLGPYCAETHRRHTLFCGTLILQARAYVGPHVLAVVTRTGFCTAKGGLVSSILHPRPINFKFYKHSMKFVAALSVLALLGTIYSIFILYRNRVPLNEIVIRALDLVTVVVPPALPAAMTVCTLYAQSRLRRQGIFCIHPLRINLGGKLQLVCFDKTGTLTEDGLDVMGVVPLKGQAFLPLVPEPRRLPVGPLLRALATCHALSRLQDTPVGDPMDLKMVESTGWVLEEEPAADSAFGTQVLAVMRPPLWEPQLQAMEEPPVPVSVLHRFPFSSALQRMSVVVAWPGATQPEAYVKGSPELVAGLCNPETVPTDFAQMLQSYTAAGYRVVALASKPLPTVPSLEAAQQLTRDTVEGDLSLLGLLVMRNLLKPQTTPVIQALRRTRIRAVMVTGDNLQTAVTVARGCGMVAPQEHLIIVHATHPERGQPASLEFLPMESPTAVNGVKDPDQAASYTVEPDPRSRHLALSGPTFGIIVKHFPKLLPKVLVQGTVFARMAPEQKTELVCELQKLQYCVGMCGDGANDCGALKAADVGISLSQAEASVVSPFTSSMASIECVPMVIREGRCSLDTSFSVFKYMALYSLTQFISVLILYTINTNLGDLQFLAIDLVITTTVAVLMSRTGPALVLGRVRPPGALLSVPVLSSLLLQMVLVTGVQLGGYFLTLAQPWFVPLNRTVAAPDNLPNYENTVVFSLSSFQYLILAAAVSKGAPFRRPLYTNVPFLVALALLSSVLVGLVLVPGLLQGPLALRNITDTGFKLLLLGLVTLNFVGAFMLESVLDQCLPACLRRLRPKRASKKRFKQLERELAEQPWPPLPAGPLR
The experiment in a line: ATPase assay (ADP-Glo Max), purified ATP13A2 from yeast expression system. It counts as biochemical. Also noted: we obtained >95% pure, full length and solubilized ATP13A2; biotin acceptor domain (BAD) tag behind a thrombin cleavage site (C, cleaved yes); made in house; host or cells: S. cerevisiae W303-1B/Gal4-ΔPep4, pYeDP60 vector. As to conditions: for Vmax ± SEM: Purified ATP13A2 with 125 µM PA and 125 µM PI(3,5)P2. The procedure:
ATPase assay - The ATPase activity of ATP13A2 was assessed using a commercially available luminescence assay (ADP-Glo Max assay, Promega) that monitors the production of ADP via luciferase activity. The reactions were performed for 30 min (37°C) in a final volume of 25 µl. The assay reaction mixture contained 50 mM MOPS-KOH (pH 7), 100 mM KCI, 11 mM MgCl2, 1 mM DTT, 195 µM DDM, various concentrations of the indicated compound, and either microsomes (5 µg) harvested from SH-SY5Y cells overexpressing ATP13A2 (WT or mutants) or purified ATP13A2 (0.5 µg). When purified ATP13A2 was used, we included 125 µM PA, 125 µM PI(3,5)P2 and 19.5 µM DDM in the reaction buffer. The assay was started by the addition of 5 mM ATP and was terminated by adding 25 µl of ADP-Glo Reagent. The 96-well plate was then incubated for 40 min at room temperature, followed by the addition of 50 µl of ADP-Glo Max Detection Reagent. After 40 min, luminescence was detected using a FlexStation 3.0 system (Molecular Devices). Dose-response curves and n/Km/Vmax values were calculated using GraphPad Prism Software (GraphPad Software Inc.).
Transformation and overexpression of ATP13A2 in yeast - The S. cerevisiae W303-1B/Gal4-ΔPep4 strain (leu2-3, his3-11,15, trp1-1::TRP1-GAL10-GAL4, ura3-1, ade2-1, canr, cir^+, ΔPep4 MAT; a kind gift from Rosa Lopez Marques) was transformed according to the lithium acetate/single-stranded carrier DNA/polyethylene glycol method [Gietz, R. D. & Woods, R. A. Methods Enzymol 350, 87-96 (2002)], with the pYeDP60 vector containing a yeast codon optimized version of human ATP13A2 variant 2 (WT or the catalytically dead E343A mutant) followed by a thrombin cleavage site and a C-terminal BAD tag [Azouaoui, H. et al. PLoS One 9, e112176, (2014); Jidenko, M. et al.Protein Expr Purif 48, 32-42, (2006)]. The transformation mixture was grown for 48 h at 30°C on minimal medium agar plates lacking uracil (0.54% yeast nitrogen base without amino acids, 0.12% yeast drop-out mix without Ura, 2% glucose, and 2% agar) to select yeast colonies that acquired the plasmid. These colonies were then cultured in 20 ml of MM-Ura medium (0.67% yeast nitrogen base without amino acids, 0.19% yeast drop-out mix without Ura, and 2% glucose) and grown for 24 h at 28°C and 200 rpm. The MM-Ura yeast pre-culture was used to inoculate 100 ml of MM-Ura medium to a final OD600 of 0.2, followed by a 12 h incubation period (28°C and 200 rpm). The second pre-culture was inoculated into 4.5 l of YPGE2X medium (2% yeast extract, 2% bactopeptone, 1% glucose, and 2.7% ethanol) to a final OD600 of 0.05 and grown for 36 h (28°C and 175 rpm). ATP13A2-BAD expression was induced with 2% galactose, followed by a second galactose induction 12 h later. After another 12 h, the pellet was collected (1,000 x g; 10 min; 4°C).
Yeast membrane preparation - Yeast cells were broken with glass beads using a BeadBeater (BioSpec products). The lysis buffer contained 50 mM Tris-HCI (pH 7.5), 1 mM EDTA, 0.6 M sorbitol, 1 mM phenylmethylsulfonyl fluoride and SigmaFast protease inhibitor. To remove cell debris and nuclei, the crude extract was centrifuged at 2,000 x g for 20 min (4°C). The supernatant (S1) was centrifuged at 20,000 x g for 20 min (4°C) to pellet the heavy membrane fraction (P2), and the resulting supernatant (S2) was further centrifuged at 200,000 x g for 1 h (4°C). The resulting pellet (i.e., the light membrane fraction, P3) was resuspended in 20 mM HEPES-Tris (pH 7.4), 0.3 M sucrose and 0.1 mM CaCl2. The total protein concentration was determined using a Bradford assay (B6916, Sigma-Aldrich).
ATP13A2-BAD purification - The method used to purify ATP13A2 was based on the purification of overexpressed Drs2p from yeast membranes. Yeast P3 membranes were diluted to 5 mg of total protein/ml in SSR buffer (50 mM MOPS-KOH (pH 7), 100 mM KCI, 20% glycerol, 5 mM MgCl2, 1 mM DTT, and SigmaFast protease inhibitor cocktail) and solubilized using DDM, with a detergent to protein ratio of 1:1.

In the case of `NCCCCNCCCN` [Spermidine, spermidine], the “Vmax ± SEM” value was determined as 194 ± 26 nmol ADP/mg/min.

`NCCCNCCCCNCCCN` [Spermine, spermine]: the “Vmax ± SEM” value was found to be 159 ± 10 nmol ADP/mg/min. The “ATPase activity of purified ATP13A2” value (indicated SPM concentrations) is recorded as “stimulated the ATPase activity”.

For the origin of these results see patent EP3839043A1, “SCREENING METHODS FOR COMPOUNDS MODULATING POLYAMINE TRANSPORT” (Katholieke Universiteit Leuven, priority 2019, dated 2021).
